Measurements reported in patent publication US10800789B2, “Antiviral compounds” (Gilead Pharmasset LLC, priority 2012, dated 2020).
Where two headings read alike, the source gives them in different places.

Tests used:
[1] = system: stable HCV 1a RLuc replicon cells (dicistronic genotype 1a H77 replicon); test: Renilla luciferase HCV replicon reporter assay, genotype 1a; type: cell-based; settings: Hepatitis C virus, 72 h, stable 1a H77 RLuc replicon cells
Method in brief: (§1)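 First, 3-fold serial dilutions of compound went onto replicon cells, DMSO serving as no-inhibition control and ITMN-191 at >100×EC50 as positive control. Next came 72 h incubation, lysis and Renilla luciferase measurement. Finally, EC50 was calculated by non-linear regression; replicons covered genotypes 1a H77, 1b Con1, 2a JFH-1 (L31) and J6-NS5A chimera (M31).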

[2] = system: NS5A chimeric genotype 2a JFH-1 replicon with genotype 2b MD2b-1 strain NS5A gene (M31 present); test: Replicon assay, genotype 2b NS5A chimera; type: cell-based, HCV; settings: Hepatitis C virus
Method in brief: (§2)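 EC50 was fitted by non-linear regression to Renilla luciferase signal after 72 h of exposure to 3-fold serially diluted compound (10 mM DMSO stocks). Controls were DMSO (none) and ITMN-191 above 100×EC50 (full). Chimeric 2a replicons were used either stable or transiently transfected into Huh-Lunet cells.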

[3] = system: stable HCV 2a JFH-1 Rluc replicon cells (L31 present in NS5A); test: Renilla luciferase HCV replicon reporter assay, genotype 2a JFH-1; type: cell-based; settings: Hepatitis C virus
Method in brief: as §1

[4] = system: NS5A chimeric genotype 1b Con1 replicon with genotype 3a S52 strain NS5A gene; test: Replicon assay, genotype 3a NS5A chimera; type: cell-based, HCV; settings: Hepatitis C virus
[5] = system: NS5A chimeric genotype 2a JFH-1 replicon with genotype 2a J6 strain NS5A gene (M31 present); test: Replicon assay, genotype 2a J6 NS5A chimera; type: cell-based, HCV; settings: Hepatitis C virus
Method in brief: as §2

[6] = system: stable HCV 1b RLuc replicon cells (dicistronic genotype 1b Con1 replicon); test: Renilla luciferase HCV replicon reporter assay, genotype 1b; type: cell-based; settings: Hepatitis C virus, 72 h, stable 1b Con1 RLuc replicon cells, 72 hours; read-out: 1b
Method in brief: as §1

[7] = system: NS5A chimeric genotype 1b Con1 replicon with genotype 4a ED43 strain NS5A gene; test: Replicon assay, genotype 4a NS5A chimera; type: cell-based, HCV; settings: Hepatitis C virus
[8] = 2BS, read-out: 2b (s), stably replicating replicon cells (s), activity range
[9] = read-out: 2b (s) (nM), genotype 2b MD2b-1 NS5A chimeric replicon (M31), stably replicating replicon cells (s)
[10] = read-out: 2a JFH (nM), genotype 2a JFH-1 replicon (L31 in NS5A), stable cells
[11] = read-out: 2a JFH, stable 2a JFH-1 Rluc replicon cells, L31 in NS5A, activity range
[12] = read-out: 3a (s) (nM), genotype 3a NS5A chimeric replicon, stable replicon cells (s)
[13] = read-out: 3a (s), (s), activity range
[14] = read-out: 2a J6 (t) (nM), genotype 2a J6 NS5A chimeric replicon (M31), transiently transfected (t) into Huh-Lunet cells
[15] = read-out: 2a J6 (t), transiently transfected (t) into Huh-Lunet cells, activity range
[16] = read-out: 4a (s) (nM), genotype 4a NS5A chimeric replicon, stable replicon cells (s)
[17] = read-out: 4a (s), (s), activity range

Structure (SMILES)	EC50 [1] [nM]	EC50 ([1]; activity range) [nM]	EC50 [2, 8] [nM]	EC50 [2, 9] [nM]	EC50 [3, 10] [nM]	EC50 [3, 11] [nM]	EC50 [4, 12] [nM]	EC50 [4, 13] [nM]	EC50 [5, 14] [nM]	EC50 [5, 15] [nM]	EC50 [6] [nM]	EC50 [7, 16] [nM]	EC50 [7, 17] [nM]	EC50 ([5]; read-out: 2a J6 (s) (nM), genotype 2a J6 NS5A chimeric replicon (M31), stably replicating replicon cells (s)) [nM]	EC50 ([5]; read-out: 2a J6 (s), stably replicating replicon cells (s), activity range) [nM]
CC[C@H]1CC[C@@H](c2ncc(-c3ccc4c(c3)COc3cc5c(ccc6nc([C@@H]7C[C@H](C)CN7C(=O)[C@@H](NC(=O)OC)[C@@H](C)OC)[nH]c65)cc3-4)[nH]2)N1C(=O)[C@@H](NC(=O)OC)C(C)C [GO]	0.021	< 0.1	0.1 to 0.999	0.775	0.025	< 0.1	1.28	1 to 44	0.112	0.1 to 0.999	0.028	0.029	< 0.1	–	–
COC(=O)N[C@H](C(=O)N1[C@@H](C)CC[C@H]1c1ncc(-c2ccc3c(c2)COc2cc4c(ccc5nc([C@@H]6CC[C@H](C)N6C(=O)[C@@H](NC(=O)OC)[C@H](C)OC)[nH]c54)cc2-3)[nH]1)[C@H](C)OC [GE]	0.043	< 0.1	0.1 to 0.999	0.772	0.104	0.1 to 0.999	0.445	0.1 to 0.999	0.508	0.1 to 0.999	0.062	0.026	< 0.1	–	–
CC[C@H](C)[C@H](NC(=O)OC)C(=O)N1C[C@@H](C)C[C@H]1c1nc2ccc3cc4c(cc3c2[nH]1)OCc1cc(-c2cnc([C@@H]3CC[C@H](C)N3C(=O)[C@@H](NC(=O)OC)C(C)C)[nH]2)ccc1-4 [GR]	0.016	< 0.1	0.1 to 0.999	0.794	0.025	< 0.1	0.159	0.1 to 0.999	0.198	0.1 to 0.999	0.022	0.025	< 0.1	–	–
COC(=O)N[C@H](C(=O)N1C[C@@H](C)C[C@H]1c1ncc(-c2ccc3c(c2)COc2cc4c(ccc5nc([C@@H]6C[C@H](C)CN6C(=O)[C@@H](NC(=O)OC)[C@@H](C)OC)[nH]c54)cc2-3)[nH]1)[C@@H](C)OC [EZ, Methyl [(2S,3R)-3-methoxy-1-{(2S,4S)-2-[9-(2-{(2S,4S)-1-[N-(methoxycarbonyl)-O-methyl-L-threonyl]-4-methylpyrrolidin-2-yl}-1H-imidazol-5-yl)-1,11-dihydroisochromeno[4′,3′:6,7]naphtho[1,2-d]imidazol-2-yl]-4-methylpyrrolidin-1-yl}-1-oxobutan-2-yl]carbamate]	0.028	< 0.1	0.1 to 0.999	0.262	0.016	< 0.1	0.263	0.1 to 0.999	0.036	< 0.1	0.084	0.025	< 0.1	–	–
[2H]C([2H])([2H])C([2H])(C([2H])([2H])[2H])[C@]([2H])(NC(=O)OC)C(=O)N1[C@@H](C)CC[C@H]1c1ncc(-c2ccc3c(c2)COc2cc4c(ccc5nc([C@@H]6CC[C@H](C)N6C(=O)[C@@]([2H])(NC(=O)OC)C([2H])(C([2H])([2H])[2H])C([2H])([2H])[2H])[nH]c54)cc2-3)[nH]1 [HB]	0.012	< 0.1	0.1 to 0.999	0.49	0.011	< 0.1	0.038	< 0.1	0.155	0.1 to 0.999	0.012	0.011	< 0.1	–	–
CCC[C@H]1CC[C@@H](c2nc3ccc4cc5c(cc4c3[nH]2)OCc2cc(-c3cnc([C@@H]4CC[C@H](C)N4C(=O)[C@@H](NC(=O)OC)C(C)C)[nH]3)ccc2-5)N1C(=O)[C@@H](NC(=O)OC)C1CCOCC1 [IV]	0.045	< 0.1	0.1 to 0.999	0.426	0.055	< 0.1	0.236	0.1 to 0.999	–	–	0.053	0.018	< 0.1	0.068	< 0.1
CC[C@H]1C[C@@H](c2nc3ccc4cc5c(cc4c3[nH]2)OCc2cc(-c3cnc([C@@H]4CC[C@H](C)N4C(=O)[C@@H](NC(=O)OC)C(C)C)[nH]3)ccc2-5)N(C(=O)[C@@H](NC(=O)OC)[C@@H](C)OC)C1 [GU]	0.014	< 0.1	0.1 to 0.999	0.728	0.014	< 0.1	0.152	0.1 to 0.999	0.075	< 0.1	0.022	0.026	< 0.1	–	–
COC(=O)N[C@@H](CO)C(=O)N1[C@@H](C)CC[C@H]1c1nc2ccc3cc4c(cc3c2[nH]1)OCc1cc(-c2cnc([C@@H]3CC[C@H](C)N3C(=O)[C@@H](NC(=O)OC)C(C)C)[nH]2)ccc1-4 [GZ]	0.042	< 0.1	1 to 44	1.15	0.019	< 0.1	0.158	0.1 to 0.999	0.534	0.1 to 0.999	0.045	0.031	< 0.1	–	–
CC[C@H](C)[C@H](NC(=O)OC)C(=O)N1[C@@H](C)CC[C@H]1c1ncc(-c2ccc3c(c2)COc2cc4c(ccc5nc([C@@H]6CC[C@H](C)N6C(=O)[C@@H](NC(=O)OC)[C@@H](C)CC)[nH]c54)cc2-3)[nH]1 [EC, Methyl {(2S,3S)-1-[(2S,5S)-2-(9-{2-[(2S,5S)-1-{(2S,3S)-2-[(methoxycarbonyl)amino]-3-methylpentanoyl}-5-methylpyrrolidin-2-yl]-1H-imidazol-5-yl}-1,11-dihydroisochromeno[4′,3′:6,7]naphtho[1,2-d]imidazol-2-yl)-5-methylpyrrolidin-1-yl]-3-methyl-1-oxopentan-2-yl}carbamate]	0.008	< 0.1	0.1 to 0.999	0.4	0.015	< 0.1	0.029	< 0.1	0.429	0.1 to 0.999	0.017	0.004	< 0.1	–	–
CC[C@H]1C[C@@H](c2ncc(-c3ccc4c(c3)COc3cc5c(ccc6nc([C@@H]7CC[C@H](C)N7C(=O)[C@@H](NC(=O)OC)C(C)C)[nH]c65)cc3-4)[nH]2)N(C(=O)[C@@H](NC(=O)OC)[C@@H](C)OC)C1 [GX]	0.016	< 0.1	1 to 44	1.18	0.013	< 0.1	0.106	0.1 to 0.999	0.135	0.1 to 0.999	0.016	0.01	< 0.1	–	–
CC[C@H]1CC[C@@H](c2ncc(-c3ccc4c(c3)COc3cc5c(ccc6nc([C@@H]7C[C@@H]8CCC[C@@H]8N7C(=O)[C@@H](NC(=O)OC)C7CCOCC7)[nH]c65)cc3-4)[nH]2)N1C(=O)[C@@H](NC(=O)OC)C(C)C [IQ]	0.018	< 0.1	< 0.1	0.069	0.023	< 0.1	0.045	< 0.1	0.046	< 0.1	0.019	0.021	< 0.1	–	–
CC[C@H]1CC[C@@H](c2ncc(-c3ccc4c(c3)COc3cc5c(ccc6nc([C@@H]7C[C@H](C)CN7C(=O)[C@@H](NC(=O)OC)C(C)C)[nH]c65)cc3-4)[nH]2)N1C(=O)[C@@H](NC(=O)OC)C1CCOCC1 [IC]	0.024	< 0.1	0.1 to 0.999	0.122	0.02	< 0.1	0.116	0.1 to 0.999	0.052	< 0.1	0.027	0.012	< 0.1	–	–
CC[C@H](C)[C@H](NC(=O)OC)C(=O)N1[C@@H](C)CC[C@H]1c1ncc(-c2ccc3c(c2)COc2cc4c(ccc5nc([C@@H]6CC[C@H](C)N6C(=O)[C@@H](NC(=O)OC)C(C)C)[nH]c54)cc2-3)[nH]1 [GL]	0.015	< 0.1	0.1 to 0.999	0.577	0.024	< 0.1	0.054	< 0.1	0.364	0.1 to 0.999	0.021	0.022	< 0.1	–	–
